Biological target: Serine/threonine-protein kinase 10 (Homo sapiens, UniProt O94804)
Experiment: Inhibition of STK10 (unknown origin) expressed in Sf9 cells assessed as transfer of radiolabelled phosphate group from ATP by reaction biology method

Chain of Serine/threonine-protein kinase 10 (O94804 whole entry): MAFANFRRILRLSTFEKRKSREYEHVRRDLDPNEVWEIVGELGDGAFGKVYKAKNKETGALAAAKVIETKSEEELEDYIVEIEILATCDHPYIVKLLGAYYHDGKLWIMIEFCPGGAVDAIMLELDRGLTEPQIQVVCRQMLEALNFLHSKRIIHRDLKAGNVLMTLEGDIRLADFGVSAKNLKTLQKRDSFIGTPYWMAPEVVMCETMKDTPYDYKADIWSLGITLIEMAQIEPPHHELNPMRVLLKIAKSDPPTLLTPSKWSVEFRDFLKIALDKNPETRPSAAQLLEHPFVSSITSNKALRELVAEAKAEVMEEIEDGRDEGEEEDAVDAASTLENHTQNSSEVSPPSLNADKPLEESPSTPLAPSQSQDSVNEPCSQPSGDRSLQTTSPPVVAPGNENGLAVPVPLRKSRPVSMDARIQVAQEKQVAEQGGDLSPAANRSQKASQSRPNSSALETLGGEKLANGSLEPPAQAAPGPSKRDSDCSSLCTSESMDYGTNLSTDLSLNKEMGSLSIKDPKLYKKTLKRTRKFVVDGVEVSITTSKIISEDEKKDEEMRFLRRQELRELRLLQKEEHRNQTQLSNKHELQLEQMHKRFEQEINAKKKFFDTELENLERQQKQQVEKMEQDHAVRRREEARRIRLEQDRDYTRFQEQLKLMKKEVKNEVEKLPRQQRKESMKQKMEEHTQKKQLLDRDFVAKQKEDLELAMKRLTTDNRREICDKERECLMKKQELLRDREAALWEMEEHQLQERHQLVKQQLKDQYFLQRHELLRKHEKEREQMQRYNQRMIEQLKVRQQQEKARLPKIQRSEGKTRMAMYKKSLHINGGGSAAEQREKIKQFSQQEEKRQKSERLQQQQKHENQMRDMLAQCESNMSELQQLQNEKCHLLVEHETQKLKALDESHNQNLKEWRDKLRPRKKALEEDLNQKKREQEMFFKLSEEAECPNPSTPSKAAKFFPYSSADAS

IC50: 99 nM
SMILES: Cn1cc(C2=C(c3cn(CCCSC(=N)N)c4ccccc34)C(=O)NC2=O)c2ccccc21 [BISINDOLYLMALEIMIDE IX]
